In patent publication US6500846B1, “CDK inhibitors having flavone structure” (LG Chemical, Ltd., priority 1998, dated 2002):

Columns and labels:
CDK2/cyclin A = molecular target: T1, CDK2/cyclin A (Homo sapiens, UniProt P24941); assay: Inhibitory activity against CDK2/cyclin A enzyme (GST-RB phosphorylation, P32-γ-ATP, scintillation counting); format: biochemical; settings: 100 μM ATP, GST-RB substrate, 30° C. 30 minutes
T1 construct: made in house; host or cells: insect cells infected with baculoviruses
Description: (§1) Analysis of inhibitory activity against CDK2/cyclin A and CDK4/cyclin D1 enzyme.
(§2) The inhibitory activity against CDK2 is measured by referring to Kitagawa, M. et al., Oncogene 9:2549, 1994 and the inhibitory activity against CDK4 is measured by referring to Carlson, B. A. et al., Cancer Research 56:2473,1996.
(§3) As for CDK2, either the extract from the insect cell infected both with baculovirus which expresses CDK2 gene and baculovirus which expresses cyclin A gene or the active enzyme which had been purified therefrom was used. CDK4 enzyme was also obtained from the insect cell infected both with baculovirus expressing CDK4 gene and baculovirus expressing cyclin D1 gene. As the substrate for CDK2, either histon H1 or Rb protein was used. Rb protein was also used as the substrate for CDK4.
(§4) Specifically the activities of enzymes CDK2/cyclin A and CDK4/cyclin D1 were determined according to the following procedure.
(§5) 100 ng of enzyme was reacted in a total 1000 μl of 20 mM Tris (pH 8.0), 100 mM NaCl, 10 mM MgCl2 buffer solution containing 20 μg of GST-RB protein, 100 μM of ATP and 5 μCi of P32-γ-ATP at 30° C. for 30 minutes. Then, the enzyme reaction was stopped by adding EDTA to a concentration of 20 mM. Subsequently, 30 μl of 50% glutathione bead (purchased from Pharmacia) was added to attach GST-RB to the bead, which was washed three times with 20mM Tris (pH 8.0), 100 mM NaCl, 10 mM EDTA solution, and then scintillation counting was carried out. To analyze the inhibitory activity of the compound, the inhibitor having a proper concentration was added to the enzyme reaction solution, and then the enzyme activity was measured according to the above method.
(§6) The inhibitory activity of the compound of formula (1) according to the present invention against CDK2 and CDK4 is represented as IC50 value. The compounds which are not included in Examples(compound 63, 64, 65 and 66) were synthesized and purified according to the same procedure as examples, and then IC50 thereof was measured.

CDK4/cyclin D1 = molecular target: T2, CDK4/cyclin D1 (Homo sapiens, UniProt P11802); assay: Inhibitory activity against CDK4/cyclin D1 enzyme (GST-RB phosphorylation, P32-γ-ATP, scintillation counting); format: biochemical; settings: CDK4/cyclin D1, 100 μM ATP, GST-RB substrate, 30° C. 30 minutes
T2 construct: made in house; host or cells: insect cells infected with baculoviruses
T2 sequence (P11802 whole entry, species assumed): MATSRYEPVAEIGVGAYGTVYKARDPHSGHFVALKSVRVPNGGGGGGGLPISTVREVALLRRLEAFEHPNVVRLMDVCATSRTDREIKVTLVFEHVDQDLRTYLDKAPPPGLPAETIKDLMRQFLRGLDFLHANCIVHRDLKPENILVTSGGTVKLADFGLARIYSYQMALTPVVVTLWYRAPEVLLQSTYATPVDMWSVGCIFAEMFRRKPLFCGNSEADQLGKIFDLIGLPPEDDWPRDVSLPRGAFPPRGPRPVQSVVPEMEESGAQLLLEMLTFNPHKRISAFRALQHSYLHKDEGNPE
T2 sequence (P24385 whole entry partner, species assumed): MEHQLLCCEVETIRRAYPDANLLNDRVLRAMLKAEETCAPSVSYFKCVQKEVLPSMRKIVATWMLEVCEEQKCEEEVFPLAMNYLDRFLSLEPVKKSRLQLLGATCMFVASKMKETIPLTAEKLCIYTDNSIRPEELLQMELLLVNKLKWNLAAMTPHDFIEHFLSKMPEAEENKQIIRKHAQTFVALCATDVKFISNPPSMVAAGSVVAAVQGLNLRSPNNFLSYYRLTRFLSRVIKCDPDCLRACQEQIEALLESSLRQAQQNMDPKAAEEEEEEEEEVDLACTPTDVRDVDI
Description: as §1, §2, §3, §4, §5, §6

in vivo = settings: male, ICR, mouse, po
Description: The acute oral toxcities of the compounds 14, 17, 28, 39, 51 and 57 each of which is obtained in Examples 14, 17, 73,84, 96 and 102, respectively are investigated in the following.
Solutions containing a compound in several different concentrations from each other were prepared, and they were administered orally to ICR male mouse with a dose of 10 ml/kg.
After administration, lethality and symptoms for 7 days were observed, and LD50 (mg/kg) was calculated according to Litchfield-Wilcoxon' method.

| Compound | IC50 (CDK2/cyclin A) [µM] | IC50 (CDK4/cyclin D1) [µM] | LD50 at 7 days (in vivo) [mg/kg] |
| --- | --- | --- | --- |
| Cc1ccc(S(=O)(=O)Nc2ccc3oc(-c4ccc(O)c(O)c4)c(O)c(=O)c3c2)cc1 [Compound 28, N-[2-(3,4-dihydroxyphenyl)-3-hydroxy-4-oxo-4H-chromen-6-yl]-4-methylbenzenesulfonamide] | 56 | 7.8 | > 3000 |
| O=C(NC(=O)c1ccccc1)Nc1ccc2oc(-c3ccc(O)c(O)c3)c(O)c(=O)c2c1 [Compound 57, N-benzoyl-N′-[2-(3,4-dihydroxyphenyl)-3-hydroxy-4-oxo-4H-chromen-6-yl]urea] | 22.4 | 18 | > 3000 |
| O=c1c(O)c(-c2ccc(O)c(O)c2)oc2ccc(O)cc12 [Compound 14, 2-(3,4-dihydroxyphenyl)-3,6-dihydroxy-4H-chromen-4-one] | < 5 | < 5 | > 3000 |
| O=c1c(O)c(-c2ccc(O)c(O)c2)oc2ccc(NS(=O)(=O)c3ccc(C(F)(F)F)cc3)cc12 [Compound 39, N-[2-(3,4-dihydroxyphenyl)-3-hydroxy-4-oxo-4H-chromen-6-yl]-4-(trifluoromethyl)benzenesulfonamide] | 55 | 6.4 | > 3000 |
| O=C(Nc1ccc2oc(-c3ccc(O)c(O)c3)c(O)c(=O)c2c1)Nc1ccc(Cl)cc1Cl [Compound 59, N-(2,4-dichlorophenyl)-N′-[2-(3,4-dihydroxyphenyl)-3-hydroxy-4-oxo-4H-chromen-6-yl]-urea] | 20 | 10 | – |
| COc1cccc2oc(-c3ccc4c(c3)OCO4)c(O)c(=O)c12 [Compound 4, 2-(benzo[1,3]dioxol-5-yl)-3-hydroxy-5-methoxy-chromen-4-one] | > 100 | > 100 | – |
| O=C(Nc1ccc2oc(-c3ccc(O)c(O)c3)c(O)c(=O)c2c1)c1ccc(Cl)cc1 [Compound 53, 4-chloro-N-[2-(3,4-dihydroxyphenyl)-3-hydroxy-4-oxo-4H-chromen-6-yl]benzamide] | > 100 | 5.6 | – |
| O=c1c(O)c(-c2ccc(O)c(O)c2)oc2ccc(NS(=O)(=O)c3ccc(-c4ccccc4)cc3)cc12 [Compound 35, N-[2-(3,4-Dihydroxyphenyl)-3-hydroxy-4-oxo-4H-chromen-6-yl]-[1,1′-biphenyl]-4-sulfonamide] | 4 | 2 | – |
| O=c1c(O)c(-c2ccc(O)c(O)c2)oc2ccc(NS(=O)(=O)c3cccc(Br)c3)cc12 [Compound 30, 3-bromo-N-[2-(3,4-dihydroxyphenyl)-3-hydroxy-4-oxo-4H-chromen-6-yl]benzenesulfonamide] | 14 | 2.1 | – |
| O=c1c(O)c(-c2ccc(O)c(O)c2)oc2ccc(Br)cc12 [Compound 13, 6-bromo-2-(3,4-dihydroxyphenyl)-3-hydroxy-4H-chromen-4-one] | < 5 | < 5 | – |
| O=c1c(O)c(-c2ccc(O)c(O)c2)oc2c(O)c(O)ccc12 [Compound 66, 2-(3,4-dihydroxyphenyl)-3,7,8-trihydroxy-4H-chromen-4-one] | < 10 | < 10 | – |
| O=c1c(O)c(-c2ccc(O)c(O)c2)oc2c(Cl)cc(Cl)cc12 [Compound 19, 6,8-dichloro-2-(3,4-dihydroxyphenyl)-3-hydroxy-4H-chromen-4-one] | < 10 | < 10 | – |
| O=c1c(O)c(-c2ccc(O)c(O)c2)oc2ccc(NS(=O)(=O)c3ccc(F)c(F)c3)cc12 [Compound 38, N-[2-(3,4-dihydroxyphenyl)-3-hydroxy-4-oxo-4H-chromen-6-yl]-3,4-difluorobenzenesulfonamide] | 19 | 2.6 | – |
| COc1ccc2oc(-c3ccc(O)c(O)c3)c(O)c(=O)c2c1 [Compound 16, 2-(3,4-dihydroxyphenyl)-3-hydroxy-6-methoxy-4H-chromen-4-one] | < 10 | < 10 | – |
| O=C(Nc1ccc([N+](=O)[O-])cc1)Nc1ccc2oc(-c3ccc(O)c(O)c3)c(O)c(=O)c2c1 [Compound 61, N-[2-(3,4-dihydroxyphenyl)-3-hydroxy-4-oxo-4H-chromen-6-yl]-N′-(4-nitrophenyl)urea] | 5.6 | 1.7 | – |
| CN1CCN(c2ccc(S(=O)(=O)Nc3ccc4oc(-c5ccc(O)c(O)c5)c(O)c(=O)c4c3)cc2[N+](=O)[O-])CC1 [Compound 49, N-[2-(3,4-dihydroxyphenyl)-3-hydroxy-4-oxo-4H-chromen-6-yl]-4-(4-methyl-1-piperazinyl)-3-nitrobenzenesulfonamide] | 31 | 1.6 | – |

| Compound | IC50 (CDK2/cyclin A) [µM] | IC50 (CDK4/cyclin D1) [µM] | LD50 at 7 days (in vivo) [mg/kg] |
| --- | --- | --- | --- |
| Nc1ccc2oc(-c3ccc(O)c(O)c3)c(O)c(=O)c2c1 [Compound 15, 6-amino-2-(3,4-dihydroxyphenyl)-3-hydroxy-4H-chromen-4-one] | < 5 | < 5 | – |
| O=c1c(O)c(-c2ccc(O)c(O)c2)oc2ccc(NS(=O)(=O)c3ccc(Cl)c([N+](=O)[O-])c3)cc12 [Compound 40, 4-chloro-N-[2-(3,4-dihydroxyphenyl)-3-hydroxy-4-oxo-4H-chromen-6-yl]-3-nitrobenzenesulfonamide] | 80 | 2.5 | – |
| O=c1c(O)c(-c2ccc(O)c(O)c2)oc2c(Br)cc(Br)cc12 [Compound 20, 6,8-Dibromo-2-(3,4-dihydroxyphenyl)-3-hydroxy-4H-chromen-4-one] | < 5 | < 5 | – |
| O=c1c(O)c(-c2ccc(O)c(O)c2)oc2cc(O)cc(O)c12 [Compound 65, 2-(3,4-dihydroxyphenyl)-3,5,7-trihydroxy-4H-chromen-4-one] | < 50 | < 50 | – |
| O=C(Nc1ccccc1)Nc1ccc2oc(-c3ccc(O)c(O)c3)c(O)c(=O)c2c1 [Compound 56, N-[2-(3,4-dihydroxyphenyl)-3-hydroxy-4-oxo-4H-chromen-6-yl]-N′-phenylurea] | 5 | 4.2 | – |
| COc1ccc2c(=O)c(O)c(-c3ccc(O)c(O)c3)oc2c1O [Compound 24, 2-(3,4-dihydroxyphenyl)-3,8-dihydroxy-7-methoxy-4H-chromen-4-one] | < 10 | < 10 | – |
| O=C(NCc1ccccc1)Nc1ccc2oc(-c3ccc(O)c(O)c3)c(O)c(=O)c2c1 [Compound 54, N-benzyl-N′-[2-(3,4-dihydroxyphenyl)-3-hydroxy-4-oxo-4H-chromen-6-yl]urea] | 2.3 | 2.8 | – |
| O=c1c(O)c(-c2ccc(O)c(O)c2)oc2ccc(NS(=O)(=O)c3ccc(-c4ccon4)s3)cc12 [Compound 36, N-[2-(3,4-dihydroxyphenyl)-3-hydroxy-4-oxo-4H-chromen-6-yl]-5-(isooxazolyl)-2-thiophenesulfonamide] | 12 | 3.5 | – |
| CN1CCN(c2ccc(S(=O)(=O)Nc3ccc4oc(-c5ccc(O)c(O)c5)c(O)c(=O)c4c3)cc2N)CC1 [Compound 50, 3-amino-N-[2-(3,4-dihydroxyphenyl)-3-hydroxy-4-oxo-4H-chromen-6-yl]-4-(4-methyl-1-piperazinyl)benzenesulfonamide] | > 200 | 30 | – |
| O=c1c(O)c(-c2ccc(O)c(O)c2)oc2ccc(Cl)cc12 [Compound 12, 6-chloro-2-(3,4-dihydroxyphenyl)-3-hydroxy-4H-chromen-4-one] | < 5 | < 10 | – |
| O=c1c(O)c(-c2ccc(O)c(O)c2)oc2ccc(NS(=O)(=O)NC3CCCCC3)cc12 [Compound 47, N-Cyclohexyl-N′-[2-(3,4-dihydroxyphenyl)-3-hydroxy-4-oxo-4H-chromen-6-yl]sulfamide] | 65 | 2 | – |
| O=C(O)c1ccc(S(=O)(=O)Nc2ccc3oc(-c4ccc(O)c(O)c4)c(O)c(=O)c3c2)cc1 [Compound 45, 4-({[2-(3,4-dihydroxyphenyl)-3-hydroxy-4-oxo-4H-chromen-6-yl]amino}sulfonyl)benzoic acid] | 28.2 | 6 | – |
| COc1ccc2c(=O)cc(-c3ccccc3)oc2c1 [Compound 2, 7-methoxy-2-phenyl-chromen-4-one] | > 200 | > 200 | – |
| COc1ccc2c(=O)cc(-c3ccc(Cl)cc3)oc2c1 [Compound 1, 2-(4-chloro-phenyl)-7-methoxy-chromen-4-one] | > 200 | > 200 | – |
| COc1ccc2c(=O)c(O)c(-c3ccc(Cl)cc3)oc2c1 [Compound 8, 2-(4-chloro-phenyl)-3-hydroxy-7-methoxy-chromen-4-one] | > 100 | > 100 | – |
